Measured values reported in US20250360137A1, “ENHANCEMENT OF THE EFFICACY OF SEROTONERGIC PSYCHEDELIC DRUGS IN THE TREATMENT OR PREVENTION OF CERTAIN NEUROPSYCHIATRIC DISORDERS THROUGH INHIBITION OF TYPE-9 PHOSPHODIESTERASES” (Freedom Biosciences, Inc., priority 2022, published 2025).

Tested on: C57B6/J mice
Experiment: Psilocybin induced head twitch response (HTR) in mice, automated system with implanted ear magnets
Type: in vivo
Experimental: Illustrated herein is a dose-dependent decrease in hallucinogenic response (head-twitch response, HTR) to psilocybin administration by adding a PDE9 inhibitor.
In this experiment, it was determined whether the number of head twitches in 10 minutes in response to psilocybin administration in 7-10 week old C57B6/J mice (equal numbers of male and female) were reduced by PF-4447943, a prototypical PDE9 inhibitor. The experiment began with the mice receiving a 20-minute pretreatment with PF-4447943 or its associated vehicle (5% Cremophor, 5% dimethyl sulfoxide (DMSO), and 90% saline) followed by the test dose of psilocybin. Head twitch was assessed for 10 minutes in an automated system using implanted magnets in the mouse's ears. At least one week elapsed prior to reuse, and mice were used maximally twice. […] For instance, average HTR over 10 min in mice receiving 3 mg/kg psilocybin and no PF-4447943 was about 30, while average HTR over 10 min in mice receiving 3 mg/kg psilocybin plus 3 mg/kg PF-4447943 was about 20.
In another experiment, a psilocybin dose-response curve was generated in the presence and absence of a fixed dose of pre-administered PF-4447943. FIG. 2 depicts the results of HTR in mice receiving administration of a fixed dose of PF-4447943 (3 mg/kg IP) and various doses of psilocybin (0, 0.3, 1, 3, 10 mg/kg IP), in comparison with administration of psilocybin plus the PF-4447943 vehicle alone as a control.

| Structure (SMILES) | HTR after psilocybin following pretreatment with PF-4447943 compared to pretreatment with the PF-4447943 vehicle (20-minute pretreatment, head twitch assessed for 10 minutes, FIG. 1) | average HTR over 10 min (mice receiving 3 mg/kg psilocybin plus 3 mg/kg PF-4447943 (20-minute pretreatment), FIG. 1) | reduction of HTR (pretreatment with 3 mg/kg PF-4447943 IP, across all doses of psilocybin (0, 0.3, 1, 3, 10 mg/kg IP) vs psilocybin plus vehicle, FIG. 2) | average HTR over 10 min (mice receiving 3 mg/kg psilocybin and no PF-4447943 (vehicle pretreatment), FIG. 1) |
| --- | --- | --- | --- | --- |
| C[C@@H]1CN(Cc2ncccn2)C[C@H]1c1nc2c(cnn2C2CCOCC2)c(=O)[nH]1 [PF-4447943, 6-[(3S,4S)-4-methyl-1-(pyrimidin-2-ylmethyl)pyrrolidin-3-yl]-1-(tetrahydro-2H-pyran-4-yl)-1,5-dihydro-4H-pyrazolo[3,4-d]pyrimidin-4-one] | reduced | about 20 | about 40% |  |
| CN(C)CCc1c[nH]c2cccc(OP(=O)(O)O)c12 [psilocybin, [3-[2-(dimethylamino)ethyl]-1H-indol-4-yl]dihydrogen phosphate] |  |  |  | about 30 |
